These results are taken from ChEMBL document CHEMBL1201862, “PubChem BioAssay data set” (2004).

Molecules are shown by their SMILES.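 A five-concentration, 48-hour dose response in 96-well plates underlies each endpoint, interpolated linearly between surrounding concentrations. At the GI50, growth is halved.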 Activity calls are given as the source filed them. Cut-off read from the data, not from the text of the source: active = GI50 up to about 1.1 µM and inactive = higher.

Common to all, as to assay: NCI tumour cell line growth inhibition, 48 h
The test system of assay [1] is MDA-MB-435.
In assay [2] the test system is SNB-19.
The test system of assay [3] is HOP-92.
In assay [4] the test system is EKVX.
Assay [5] relates to SW-620.
The subject of assay [6] is ACHN.
For assay [7], the system named is RXF 393.
The subject of assay [8] is OVCAR-3.
Assay [9] has as its system COLO 205.
Assay [10] has as its system U-251.
The subject of assay [11] is K562.
Assay [12] concerns UACC-257.
The test system of assay [13] is SF-268.
Assay [14] deals with SK-MEL-28.
In assay [15] the test system is PC-3.
Assay [16] deals with HCT-116.
Assay [17] has as its system HCT-15.
The test system of assay [18] is SK-MEL-2.
The subject of assay [19] is UACC-62.

Consider `O=c1[nH]nc(-c2ccccc2)n1-c1ccncc1`, for which the GI50 in [1], in assay [2], in assay [3], in assay [4], in assay [5] and in [6] was > 100 µM (inactive) each time. The GI50 in assay [7], in assay [8], in assay [9], in assay [10], in assay [11] and in assay [12] was > 100 µM (inactive) throughout. Also, the GI50 was > 100 µM (inactive) in [13]; > 100 µM (inactive) in assay [14]; > 100 µM (inactive) in assay [15]; > 100 µM (inactive) in assay [16]; above 100 µM in assay [17].

On to `Clc1ccc(-c2c3nc(c(-c4ccc(Cl)cc4)c4ccc([nH]4)c(-c4ccc(Cl)cc4)c4nc(c(-c5ccc(Cl)cc5)c5ccc2[nH]5)C=C4)C=C3)cc1`, for which the GI50 in assay [1], in [2], in [3], in assay [4], in assay [5] and in assay [6] was > 100 µM (inactive) in each case. Moreover, the GI50 in [8], in assay [9], in [10], in assay [11], in [18] and in assay [12] was > 100 µM (inactive) in each case. Further, the GI50 in assay [13] was > 100 µM (inactive); in assay [14], > 100 µM (inactive); in assay [15], > 100 µM (inactive); in [19] it was > 100 µM (inactive); in assay [17], above 100 µM.

For `CC(=O)O[C@@H]1[C@H]2O[C@H]2[C@H]2O[C@@]2(COC(=O)c2ccccc2)[C@H]1OC(C)=O`, the GI50 in assay [1] is > 100 µM (inactive); in assay [2] it was > 100 µM (inactive); in assay [3] it was > 100 µM (inactive); in assay [4] it was > 100 µM (inactive); in [5], > 100 µM (inactive); in assay [6], 16.9 µM (inactive). The GI50 in assay [8], in [9], in assay [10], in assay [11], in assay [18] and in assay [12] was > 100 µM (inactive) in each case. Further, the GI50 in [13] is > 100 µM (inactive); in assay [14] it was > 100 µM (inactive); in assay [15] it was > 100 µM (inactive); in assay [19] it was > 100 µM (inactive); in assay [16], > 100 µM (inactive); in assay [17], above 100 µM.

Turning to `COc1ccccc1/N=C1\SCCN1C(=S)Nc1ccc(S(=O)(=O)/N=C/N(C)C)cc1`, the GI50 is 24.9 µM (inactive) in [1]; > 100 µM (inactive) in assay [2]; 27.9 µM (inactive) in [3]; 20.9 µM (inactive) in assay [4]; 44.9 µM (inactive) in assay [5]; 32.4 µM (inactive) in assay [6]. Also, the GI50 in [7] was 16.6 µM (inactive); in assay [8] it was 44 µM (inactive); in [9], 28.6 µM (inactive); in assay [10] it was > 100 µM (inactive); in [11], 39.6 µM (inactive); in assay [12], 36.1 µM (inactive). In addition, the GI50 in assay [13] is 22.1 µM (inactive); in assay [14], 30.1 µM (inactive); in assay [15] it was > 100 µM (inactive); in [19], 25.7 µM (inactive); in assay [16], 41.7 µM (inactive); in assay [17], 31.6 µM.

As for `O=C1/C(=C/c2cccc(Br)c2)CCc2ccccc21`, the GI50 in [1] was 12.4 µM (inactive); in assay [2] it was 14.7 µM (inactive); in assay [3] it was 14.7 µM (inactive); in assay [4] it was 17.6 µM (inactive); in [5], 5.51 µM (inactive); in assay [6], 14.2 µM (inactive). The GI50 is 15.2 µM (inactive) in assay [8]; 20.8 µM (inactive) in assay [9]; 14.6 µM (inactive) in assay [10]; 6.65 µM (inactive) in assay [11]; 12.9 µM (inactive) in [18]; 14.8 µM (inactive) in assay [12]. Besides, the GI50 in [13] was 6.76 µM (inactive); in [14], 18.4 µM (inactive); in [15] it was 14.2 µM (inactive); in assay [19], 10.5 µM (inactive); in [16] it was 7.69 µM (inactive); in [17], 11.5 µM.

In the case of `CC[C@H]1CN(C)[C@H]2Cc3c([nH]c4ccccc34)C(=O)C[C@H]1C2C(=O)OC` (some centres undefined), the GI50 in assay [1], in assay [2], in assay [3], in assay [4], in assay [5] and in [6] was > 100 µM (inactive) throughout. Further, the GI50 in assay [7], in [8], in assay [9], in assay [10], in [18] and in [12] was > 100 µM (inactive) each time. Also, the GI50 is > 100 µM (inactive) in assay [13]; > 100 µM (inactive) in [14]; > 100 µM (inactive) in assay [15]; > 100 µM (inactive) in assay [19]; > 100 µM (inactive) in assay [16]; above 100 µM in assay [17].

Consider `Cc1nc2c(nc1C)-c1[nH]c3c(c1C(=O)C2=O)CCCC3=O`, for which the GI50 is 0.483 µM (active) in assay [1]; 2.33 µM (inactive) in [2]; 1.69 µM (inactive) in assay [3]; 1.48 µM (inactive) in assay [4]; 1.95 µM (inactive) in assay [5]; 2.64 µM (inactive) in [6]. The GI50 in [7] was 0.516 µM (active); in [9] it was 2.88 µM (inactive); in [10], 1.34 µM (inactive); in [11], 2.03 µM (inactive); in assay [18], 1.79 µM (inactive); in assay [12], 2.02 µM (inactive). For the same compound, the GI50 is 1.47 µM (inactive) in [13]; 1.71 µM (inactive) in assay [14]; 4.25 µM (inactive) in assay [15]; 1.71 µM (inactive) in assay [19]; 2.54 µM (inactive) in assay [16]; 2.81 µM in assay [17].

`CNn1c(-c2ccccc2)n[nH]c1=O`: the GI50 in assay [1], in assay [2], in assay [3], in assay [4], in [5] and in [6] was > 100 µM (inactive) throughout. The GI50 in assay [8], in assay [9], in assay [10], in assay [11], in assay [18] and in assay [12] was > 100 µM (inactive) throughout. Further, the GI50 in [13] was > 100 µM (inactive); in assay [14], > 100 µM (inactive); in assay [15], > 100 µM (inactive); in assay [19], > 100 µM (inactive); in assay [16] it was > 100 µM (inactive); in assay [17], above 100 µM.

For the compound `CC(NC(=O)C(Cc1ccc(OC(=O)c2ccccc2)cc1)NC(=O)OC(C)(C)C)C(=O)NCC(=O)NC(Cc1ccccc1)NC(=O)OCc1ccccc1` (centres undefined), the GI50 in [1], in [2], in assay [3], in assay [4], in [5] and in assay [6] was > 100 µM (inactive) throughout. Besides, the GI50 in assay [7], in assay [8], in [9], in assay [10], in [11] and in assay [13] was > 100 µM (inactive) throughout. Also, the GI50 in [14] was > 100 µM (inactive); in assay [15], > 100 µM (inactive); in assay [19], > 100 µM (inactive); in assay [16] it was > 100 µM (inactive); in [17], above 100 µM.

In the case of `Cc1nc2ccccc2[nH]/c1=N/Nc1ccccc1`, the GI50 in assay [1] was 14.8 µM (inactive); in assay [2], 45.1 µM (inactive); in [3], 3.8 µM (inactive); in [4] it was 4.17 µM (inactive); in [5] it was 40.6 µM (inactive); in [6] it was 30.5 µM (inactive). Moreover, the GI50 is 14 µM (inactive) in assay [8]; 0.108 µM (active) in assay [9]; 48.3 µM (inactive) in assay [10]; 17.9 µM (inactive) in assay [11]; 30.4 µM (inactive) in assay [18]; 57.9 µM (inactive) in assay [12]. Further, the GI50 was 27.6 µM (inactive) in [13]; 26.5 µM (inactive) in assay [14]; 26.1 µM (inactive) in assay [15]; 16.3 µM (inactive) in assay [19]; 25.8 µM (inactive) in [16]; 18.9 µM in [17].

For the compound `Cc1oc2c(c1C)S(=O)(=O)C(C#N)=C(N(C)C)N2`, the GI50 in [1], in [2], in assay [3], in [4], in assay [5] and in assay [6] was > 100 µM (inactive) each time. In addition, the GI50 in [8], in assay [10], in [11], in assay [18], in assay [12] and in [13] was > 100 µM (inactive) throughout. The GI50 is > 100 µM (inactive) in [14]; > 100 µM (inactive) in assay [15]; > 100 µM (inactive) in [19]; > 100 µM (inactive) in [16]; above 100 µM in [17].
